Assay results: ChEMBL document CHEMBL6103543, “Exploring the rhodanine universe: Design and synthesis of fluorescent rhodanine-based derivatives as anti-fibrillar and anti-oligomer agents against α-synuclein and 2N4R tau” (Bioorg Med Chem, 2024)
Calls of active or inactive are those of the source. No cut-off for these calls is given here.

Columns and labels:
Alpha-synuclein [1] = biological target: T1, Alpha-synuclein (Homo sapiens, UniProt P37840); experiment: Inhibition of recombinant alpha-synuclein (unknown origin) fibril formation assessed as thioflavin T fluorescence intensity at 100 uM measured every 20 mins by Thioflavin T fluorescence assay (reference value: 100 %)
Alpha-synuclein [2] = biological target: T1, Alpha-synuclein; experiment: Inhibition of alpha-synuclein (unknown origin) oligomer formation assessed as reduction in cross linking at 100 uM preincubated with compound followed by Ru(BPY3) addition and measured after 1 sec light irradiation by coomassie blue staining based PICUP assay
Alpha-synuclein [3] = biological target: T1, Alpha-synuclein; experiment: Inhibition of alpha-synuclein (unknown origin) oligomer formation assessed as reduction in cross linking preincubated with compound followed by Ru(BPY3) addition and measured after 1 sec light irradiation by coomassie blue staining based PICUP assay; details: dose 50-200 µM
Alpha-synuclein [4] = biological target: T1, Alpha-synuclein; experiment: Inhibition of alpha-synuclein (unknown origin) oligomer formation assessed as reduction in cross linking at 50 uM preincubated with compound followed by Ru(BPY3) addition and measured after 1 sec light irradiation by coomassie blue staining based PICUP assay relative to control
Alpha-synuclein [5] = biological target: T1, Alpha-synuclein; experiment: Inhibition of alpha-synuclein (unknown origin) oligomer formation assessed as reduction in cross linking at 100 uM preincubated with compound followed by Ru(BPY3) addition and measured after 1 sec light irradiation by coomassie blue staining based PICUP assay relative to control
[6] = biological target: Microtubule-associated protein tau (Homo sapiens) (UniProt P10636); experiment: Inhibition of recombinant Tau 0N4R (unknown origin) aggregation assessed as decrease in fluorescence intensity at 100 uM measured every 5 mins by Thioflavin S fluorescence assay
Alpha-synuclein [7] = biological target: T1, Alpha-synuclein; experiment: Inhibition of recombinant alpha-synuclein (unknown origin) fibril formation assessed as decrease in thioflavin T fluorescence intensity measured every 20 mins by Thioflavin T fluorescence assay
[8] = biological target: Microtubule-associated protein tau (Homo sapiens) (UniProt P10636); experiment: Inhibition of recombinant phosphorylated Tau 1N4R (unknown origin) aggregation assessed as decrease in fluorescence intensity at 100 uM measured every 5 mins by Thioflavin S fluorescence assay
[9] = biological target: Microtubule-associated protein tau (Homo sapiens) (UniProt P10636); experiment: Inhibition of Tau 0N4R (unknown origin) oligomer formation assessed as reduction in cross linking at 100 uM preincubated with compound followed by Ru(BPY3) addition and measured after 15 sec light irradiation by coomassie blue staining based PICUP assay relative to control
[10] = biological target: Microtubule-associated protein tau (Homo sapiens) (UniProt P10636); experiment: Inhibition of Tau 0N4R (unknown origin) oligomer formation assessed as reduction in cross linking at 50 uM preincubated with compound followed by Ru(BPY3) addition and measured after 15 sec light irradiation by coomassie blue staining based PICUP assay relative to control
[11] = (§1) Cytotoxicity against human M17D cells expressing doxycyclin-inducible alpha-syn-S3K::YFP inclusion-prone fusion protein assessed as reduction in cell confluency at 1.25 to 40 uM treated with compound starting from 24 hrs post plating followed by doxycyclin addition at 48 hrs and measured 96 hrs post plating by Incucyte-based analysis; type: toxicity; details: 72 h, dose 1.25-40 µM
Alpha-synuclein [12] = biological target: T1, Alpha-synuclein; experiment: Binding affinity to alpha-synuclein fibril (unknown origin) assessed as hypsochromic shift at 1 uM incubated for 40 mins by fluorescence spectrophotometric analysis
[13] = biological target: Microtubule-associated protein tau (Homo sapiens) (UniProt P10636); experiment: Inhibition of Tau 0N4R (unknown origin) oligomer formation assessed as reduction in cross linking at 300 uM preincubated with compound followed by Ru(BPY3) addition and measured after 15 sec light irradiation by coomassie blue staining based PICUP assay relative to control
[14] = biological target: Microtubule-associated protein tau (Homo sapiens) (UniProt P10636); experiment: Inhibition of recombinant Tau 2N4R (unknown origin) aggregation assessed as decrease in fluorescence intensity at 100 uM measured every 5 mins by Thioflavin S fluorescence assay
[15] = biological target: Microtubule-associated protein tau (Homo sapiens) (UniProt P10636); experiment: Inhibition of Tau 0N4R (unknown origin) oligomer formation assessed as reduction in cross linking at 200 uM preincubated with compound followed by Ru(BPY3) addition and measured after 15 sec light irradiation by coomassie blue staining based PICUP assay relative to control
[16] = biological target: Microtubule-associated protein tau (Homo sapiens) (UniProt P10636); experiment: Binding affinity to recombinant human 2N4R fibril extracted from Escherichia coli assessed as fluorescence quenching at 1 uM incubated for 40 mins by fluorescence spectrophotometric analysis
[17] = biological target: Amyloid-beta precursor protein (Homo sapiens) (UniProt P05067); experiment: Inhibition of HFIP-induced recombinant amyloid beta (1 to 42) (unknown origin) aggregation assessed as decrease in thioflavin T fluorescence intensity at 100 uM measured every 20 mins by Thioflavin T fluorescence assay
Alpha-synuclein [18] = biological target: T1, Alpha-synuclein; experiment: as §1, with “Inhibition of alpha-syn inclusion formation in” for “Cytotoxicity against”, “inclusions” for “cell confluency”; type: cell-based; details: dose 1.25-40 µM, time 72.0 hrs
[19] = biological target: Amyloid-beta precursor protein (Homo sapiens) (UniProt P05067); experiment: Inhibition of amyloid beta aggregation derived from alzhemier's disease patient brain assessed as reduction in plaques at 50 uM incubated for 5 days by transmission electron microscopic analysis; details: time 5.0 day
Alpha-synuclein [20] = biological target: T1, Alpha-synuclein; experiment: Inhibition of alpha-synuclein (unknown origin) oligomer formation at 100 uM incubated for 3 days by Western blot analysis; details: time 3.0 day
[21] = biological target: Microtubule-associated protein tau (Mus musculus) (UniProt P10637); experiment: Inhibition of Tau aggregation in mouse N2a cells at 15 uM incubated for 5 days by ThS staining based analysis relative to control; type: cell-based; details: time 5.0 day
[22] = as §1, with “5” for “40”; type: toxicity; details: 72 h, dose 1.25-5 µM
Alpha-synuclein [23] = biological target: T1, Alpha-synuclein; experiment: as §1, with “Inhibition of alpha-syn inclusion formation in” for “Cytotoxicity against”, “inclusions” for “cell confluency”, “5” for “40”; type: cell-based; details: dose 1.25-5 µM, time 72.0 hrs
Alpha-synuclein [24] = biological target: T1, Alpha-synuclein; experiment: Inhibition of recombinant alpha-synuclein (unknown origin) fibril formation assessed as decrease in aggregation at 100 uM incubated for 3 days by transmission electron microscopic analysis; details: time 3.0 day
[25] = biological target: Microtubule-associated protein tau (Homo sapiens) (UniProt P10636); experiment: Inhibition of Tau 2N4R monomer (unknown origin) fibril formation assessed as decrease in aggregation at 100 uM incubated for 5 days by transmission electron microscopic analysis; details: time 5.0 day
Alpha-synuclein [26] = biological target: T1, Alpha-synuclein; experiment: as §1, with “Inhibition of alpha-syn inclusion formation in” for “Cytotoxicity against”, “inclusions” for “cell confluency”, “5” for “1.25 to 40”; type: cell-based; details: time 72.0 hrs
[27] = biological target: Amyloid-beta precursor protein (Homo sapiens) (UniProt P05067); experiment: Inhibition of amyloid beta aggregation derived from alzhemier's disease patient brain assessed as reduction in plaque density at 50 uM incubated for 5 days by transmission electron microscopic analysis; details: time 5.0 day
[28] = biological target: Microtubule-associated protein tau (Homo sapiens) (UniProt P10636); experiment: Binding affinity to recombinant human 2N4R fibril extracted from Escherichia coli assessed as decrease in fluorescence intensity at 1 uM incubated for 60 mins by fluorescence spectrophotometric analysis
Alpha-synuclein [29] = biological target: T1, Alpha-synuclein; experiment: Binding affinity to alpha-synuclein fibril (unknown origin) assessed as decrease in fluorescence intensity at 1 uM incubated for 60 mins by fluorescence spectrophotometric analysis

Microtubule-associated protein tau (Homo sapiens), sequence (P10636 whole entry, the tested form may be a part): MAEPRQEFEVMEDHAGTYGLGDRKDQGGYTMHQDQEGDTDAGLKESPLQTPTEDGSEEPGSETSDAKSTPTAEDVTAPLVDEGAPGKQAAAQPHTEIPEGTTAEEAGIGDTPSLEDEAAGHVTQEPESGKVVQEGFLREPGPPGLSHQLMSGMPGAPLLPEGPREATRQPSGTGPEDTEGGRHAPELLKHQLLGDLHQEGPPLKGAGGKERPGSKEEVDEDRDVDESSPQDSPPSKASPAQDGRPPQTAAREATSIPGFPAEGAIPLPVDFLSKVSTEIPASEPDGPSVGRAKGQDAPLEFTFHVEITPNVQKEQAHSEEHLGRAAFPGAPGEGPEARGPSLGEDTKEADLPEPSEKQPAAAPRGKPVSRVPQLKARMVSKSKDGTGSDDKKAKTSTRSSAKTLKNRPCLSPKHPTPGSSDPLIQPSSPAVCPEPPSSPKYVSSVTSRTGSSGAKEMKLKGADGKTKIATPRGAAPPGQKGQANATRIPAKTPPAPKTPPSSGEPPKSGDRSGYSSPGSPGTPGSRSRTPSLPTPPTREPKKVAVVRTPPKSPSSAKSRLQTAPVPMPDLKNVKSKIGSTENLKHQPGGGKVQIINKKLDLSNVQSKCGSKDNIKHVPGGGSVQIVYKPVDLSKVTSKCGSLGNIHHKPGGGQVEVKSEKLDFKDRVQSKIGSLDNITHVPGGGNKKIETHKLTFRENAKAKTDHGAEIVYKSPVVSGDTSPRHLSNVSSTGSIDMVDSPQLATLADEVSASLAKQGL
Amyloid-beta precursor protein (Homo sapiens), sequence (P05067 whole entry): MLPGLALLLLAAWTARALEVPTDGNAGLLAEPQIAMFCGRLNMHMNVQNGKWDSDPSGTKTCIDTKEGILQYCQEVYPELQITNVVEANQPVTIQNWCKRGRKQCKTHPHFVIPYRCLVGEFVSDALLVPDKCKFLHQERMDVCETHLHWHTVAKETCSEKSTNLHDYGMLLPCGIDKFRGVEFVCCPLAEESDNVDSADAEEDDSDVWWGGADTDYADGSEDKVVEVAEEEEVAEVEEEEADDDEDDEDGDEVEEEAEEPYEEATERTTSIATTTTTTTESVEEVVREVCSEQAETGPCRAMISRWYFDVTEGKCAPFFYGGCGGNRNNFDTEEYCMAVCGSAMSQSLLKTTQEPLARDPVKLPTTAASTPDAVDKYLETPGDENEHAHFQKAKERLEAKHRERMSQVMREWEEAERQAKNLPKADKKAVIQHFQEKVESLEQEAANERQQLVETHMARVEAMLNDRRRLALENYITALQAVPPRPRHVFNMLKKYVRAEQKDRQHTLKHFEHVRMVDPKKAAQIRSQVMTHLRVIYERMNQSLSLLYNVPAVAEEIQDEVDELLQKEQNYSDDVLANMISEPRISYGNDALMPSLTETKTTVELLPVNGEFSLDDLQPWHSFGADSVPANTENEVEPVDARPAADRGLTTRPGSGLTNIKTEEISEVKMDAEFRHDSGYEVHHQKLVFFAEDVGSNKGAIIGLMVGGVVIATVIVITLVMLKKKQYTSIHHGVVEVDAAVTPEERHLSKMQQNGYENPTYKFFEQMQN
Microtubule-associated protein tau (Mus musculus), sequence (P10637 whole entry): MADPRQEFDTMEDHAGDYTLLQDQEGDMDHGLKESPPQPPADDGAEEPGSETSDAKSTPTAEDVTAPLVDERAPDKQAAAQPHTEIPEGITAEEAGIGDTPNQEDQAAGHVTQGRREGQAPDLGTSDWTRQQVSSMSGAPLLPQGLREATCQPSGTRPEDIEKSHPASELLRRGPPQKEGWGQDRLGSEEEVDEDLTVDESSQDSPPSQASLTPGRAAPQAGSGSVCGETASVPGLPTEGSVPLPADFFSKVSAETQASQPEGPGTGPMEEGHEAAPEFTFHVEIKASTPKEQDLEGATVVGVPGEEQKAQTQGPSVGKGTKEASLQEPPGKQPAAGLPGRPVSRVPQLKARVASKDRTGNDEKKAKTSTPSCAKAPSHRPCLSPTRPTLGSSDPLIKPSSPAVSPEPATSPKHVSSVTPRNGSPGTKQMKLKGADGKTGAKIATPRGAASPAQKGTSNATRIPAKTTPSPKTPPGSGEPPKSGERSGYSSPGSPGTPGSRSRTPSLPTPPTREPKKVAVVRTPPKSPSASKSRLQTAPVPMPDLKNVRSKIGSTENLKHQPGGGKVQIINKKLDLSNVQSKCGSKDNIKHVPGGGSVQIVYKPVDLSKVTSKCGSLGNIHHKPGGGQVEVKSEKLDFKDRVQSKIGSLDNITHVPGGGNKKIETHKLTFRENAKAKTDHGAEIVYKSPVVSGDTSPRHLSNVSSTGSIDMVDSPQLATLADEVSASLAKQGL

SMILES | Flu intensity (Alpha-synuclein [1]) [%] | inhibition (Alpha-synuclein [2]) | also measured
COc1ccc2c(/C=C3\SC(=S)N(CCC(=O)O)C3=O)c[nH]c2c1 | > 100 | inactive | –
O=C(O)CN1C(=O)/C(=C/c2cc3ccccc3[nH]2)SC1=S | 0.1 | Active | –
O=C(O)c1ccc(N2C(=O)/C(=C/c3csc4ccccc34)SC2=S)cc1 | 70.4 | inactive | –
O=C(O)c1ccc(N2C(=O)/C(=C/c3c[nH]c4ccccc34)SC2=S)cc1 | 14.9 | Active | inhibition (Alpha-synuclein [3]): Dose-dependent-effect
O=C(O)CCN1C(=O)/C(=C/c2csc3ccccc23)SC1=S | -0.05 | inactive | –
COc1ccc2c(/C=C3\SC(=S)N(CC(=O)O)C3=O)c[nH]c2c1 | 1.9 | Active | inhibition (Alpha-synuclein [4]): 81%; inhibition (Alpha-synuclein [5]): 100%; inhibition [6]: Active; EC50 (Alpha-synuclein [7]): 8.66 µM; inhibition [8]: Active; inhibition [9]: 50%; inhibition [10]: 18%; Activity [11]: Non-toxic; inhibition (Alpha-synuclein [3]): Dose-dependent-effect; Activity (Alpha-synuclein [12]): Active; Slight Hypsochromic Shift Observed Without Any Effect On Fluorescence Intensity; inhibition [13]: 92%; inhibition [14]: Active; inhibition [15]: 70%; Activity [16]: Active; inhibition [17]: Active; inhibition (Alpha-synuclein [18]): inactive; inhibition [19]: Active; inhibition (Alpha-synuclein [20]): Active
O=C(O)c1ccc(N2C(=O)/C(=C/c3csc4ccccc34)SC2=S)cc1O | 56.7 | inactive | –
O=C(O)c1ccc(N2C(=O)/C(=C/c3nc4ccccc4s3)SC2=S)cc1O | 25 | inactive | –
O=C1/C(=C/c2ccc(-c3cccc(Cl)c3)o2)SC(=S)N1Cc1nc2ccccc2[nH]1 | – | – | inhibition [21]: 70%
O=C(O)CCN1C(=O)/C(=C/c2coc3ccccc23)SC1=S | 31.8 | inactive | –
O=C(O)CCN1C(=O)/C(=C/c2cc3ccccc3[nH]2)SC1=S | 0.5 | Active | –
O=C(O)c1ccc(N2C(=O)/C(=C/c3ccc4ccccc4n3)SC2=S)cc1O | > 100 | inactive | Activity [22]: Non-toxic; inhibition (Alpha-synuclein [23]): inactive
O=C(O)CN1C(=O)/C(=C/c2c[nH]c3ccccc23)SC1=S | 10.1 | Active | inhibition (Alpha-synuclein [3]): Dose-dependent-effect
O=C(O)CN1C(=O)/C(=C/c2cccc3cc[nH]c23)SC1=S | 15.1 | Active; Weak Inhibition Observed | –
O=C(O)CN1C(=O)/C(=C/c2csc3ccccc23)SC1=S | 3.2 | inactive | –
O=C(O)CN1C(=O)/C(=C/c2ccc3ccccc3n2)SC1=S | 5.4 | inactive | –
O=C(O)CCN1C(=O)/C(=C/c2cccc3cc[nH]c23)SC1=S | 14.7 | Active; Weak Inhibition Observed | –
O=C(O)CN1C(=O)/C(=C/c2nc3ccccc3s2)SC1=S | 0.8 | inactive | inhibition (Alpha-synuclein [24]): Active; Powerful Inhibition Observed
O=C(O)CN1C(=O)/C(=C/c2cn(CCO)c3ccccc23)SC1=S | 27 | Active | –
O=C(O)c1ccc(N2C(=O)/C(=C/c3c[nH]c4ccccc34)SC2=S)cc1O | 8.9 | inactive | inhibition [25]: Active; Moderate Effect Observed; inhibition (Alpha-synuclein [26]): Active; Activity [22]: Non-toxic; inhibition (Alpha-synuclein [24]): Active; Moderate Effect Observed
O=C(O)CN1C(=O)/C(=C/c2coc3ccccc23)SC1=S | 24.7 | inactive | –
O=C(O)c1ccc(N2C(=O)/C(=C/c3coc4ccccc34)SC2=S)cc1 | 15.3 | inactive | –
O=C(O)c1ccc(N2C(=O)/C(=C/c3coc4ccccc34)SC2=S)cc1O | 29.1 | inactive | –
O=C(O)c1ccc(N2C(=O)/C(=C/c3ccc4ccccc4n3)SC2=S)cc1 | 84.3 | inactive | –
O=C(O)CCN1C(=O)/C(=C/c2nc3ccccc3s2)SC1=S | 12.1 | inactive | inhibition (Alpha-synuclein [24]): Active; Powerful Inhibition Observed
O=C(O)CCN1C(=O)/C(=C/c2c[nH]c3ccccc23)SC1=S | 1.9 | Active | inhibition [25]: Active; EC50 (Alpha-synuclein [7]): 13.1 µM; inhibition [27]: Active; inhibition [9]: 13%; inhibition [10]: 13%; Activity [28]: Active; Bathochromic Shift Of 10 Nm Observed; Activity [11]: Non-toxic; inhibition (Alpha-synuclein [3]): Dose-dependent-effect; inhibition [13]: 78%; Activity (Alpha-synuclein [29]): Active; Bathochromic Shift Of 10 Nm Observed; inhibition [15]: 25%; inhibition [17]: Active; inhibition (Alpha-synuclein [24]): Active; inhibition (Alpha-synuclein [18]): inactive; inhibition [19]: Active; inhibition (Alpha-synuclein [20]): Active
O=C(O)CCN1C(=O)/C(=C/c2ccc3ccccc3n2)SC1=S | 25 | inactive | –
O=C(O)c1ccc(N2C(=O)/C(=C/c3nc4ccccc4s3)SC2=S)cc1 | 31.8 | inactive | –
